# Target: human RIP1 kinase domain (2-375) (Homo sapiens (Human), UniProt Q13546)
# Experiment: biochemical
# Type: biochemical
# Settings: Table 1; apparent Ki (Morrison tight-binding fit); 50 nM RIP1 kinase domain, 50 uM ATP, 2 hours incubation; read-out: RIP1 Ki
# Method in brief: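 50 nM purified kinase domain from baculovirus-infected insect cells, incubated 2 h with compound in 50 mM Hepes pH 7.5, 30 mM MgCl2, 1 mM DTT, 50 uM ATP, 0.002% Brij-35, 0.5% DMSO. ADP formation read by Transcreener FP at 633 nm excitation. Ki^app fitted with the Morrison tight-binding equation.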
# Chain of human RIP1 kinase domain (2-375) (Q13546 2-375): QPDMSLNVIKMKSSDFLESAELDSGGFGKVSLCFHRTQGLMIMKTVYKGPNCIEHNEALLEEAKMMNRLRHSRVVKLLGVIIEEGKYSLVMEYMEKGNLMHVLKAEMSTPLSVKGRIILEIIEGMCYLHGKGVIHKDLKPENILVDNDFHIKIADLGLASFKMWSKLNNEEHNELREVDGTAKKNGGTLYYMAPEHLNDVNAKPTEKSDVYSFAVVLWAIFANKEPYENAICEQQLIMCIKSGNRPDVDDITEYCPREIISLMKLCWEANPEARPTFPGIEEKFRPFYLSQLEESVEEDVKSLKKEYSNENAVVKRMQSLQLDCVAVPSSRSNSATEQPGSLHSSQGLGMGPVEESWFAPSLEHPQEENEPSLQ
row,SMILES,Ki [nM]
1,"CN1C(=O)[C@@H](NC(=O)c2nnc3ccc(C(F)(F)F)cn23)COc2ccccc21 [Example 82, (S)-N-(5-methyl-4-oxo-2,3,4,5-tetrahydrobenzo[b][1,4]oxazepin-3-yl)-6-(trifluoromethyl)-[1,2,4]triazolo[4,3-a]pyridine-3-carboxamide]",393
2,"CN1C(=O)[C@@H](NC(=O)c2n[nH]c3c2CC(C(F)(F)F)CC3)COc2ccccc21 (stereo partly drawn) [Example 34, N-((S)-5-methyl-4-oxo-2,3,4,5-tetrahydrobenzo[b][1,4]oxazepin-3-yl)-5-(trifluoromethyl)-4,5,6,7-tetrahydro-1H-indazole-3-carboxamide]",7.68
3,"CC1CCc2noc(C(=O)N[C@H]3COc4ccccc4N(C)C3=O)c2C1 (stereo partly drawn) [Example 66, 5-methyl-N-((S)-5-methyl-4-oxo-2,3,4,5-tetrahydrobenzo[b][1,4]oxazepin-3-yl)-4,5,6,7-tetrahydrobenzo[c]isoxazole-3-carboxamide]",37.4
4,"CN1C(=O)[C@@H](NC(=O)c2ccc3c(n2)CCCC3)COc2ccccc21 [Example 51, (S)-N-(5-methyl-4-oxo-2,3,4.5-tetrahydrobenzo[b][1,4]oxazepin-3-yl)-5,6,7,8-tetrahydroquinoline-2-carboxamide]",8900
5,"C[C@@H]1CCc2noc(C(=O)N[C@H]3COc4ccccc4N(C)C3=O)c2C1 [Example 71, (R)-5-methyl-N-((S)-5-methyl-4-oxo-2,3,4,5-tetrahydrobenzo[b][1,4]oxazepin-3-yl)-4,5,6,7-tetrahydrobenzo[c]isoxazole-3-carboxamide]",19.2

# Same assay, conditions: Table 5; apparent Ki (Morrison tight-binding fit); 50 nM RIP1 kinase domain, 50 uM ATP, 2 hours incubation; read-out: Ki
row,SMILES,Ki [nM]
1,"CN1C(=O)[C@@H](NC(=O)c2ncn(Cc3ccccc3)n2)CCn2nc(CN3CCC(F)(F)C3)cc21 (single isomer, unassigned) [Example 727]",59
2,"CN1C(=O)C(NC(=O)c2ncn(Cc3ccccc3)n2)CCn2nc(-c3cnn(C)c3)cc21 (racemic) [Example 778, 1-benzyl-N-(4-methyl-2-(1-methyl-1H-pyrazol-4-yl)-5-oxo-5,6,7,8-tetrahydro-4H-pyrazolo[1,5-a][1,3]diazepin-6-yl)-1H-1,2,4-triazole-3-carboxamide]",171
3,"CN1C(=O)[C@@H](NC(=O)c2cn3c(C(F)(F)F)cccc3n2)COc2ccccc21 (single isomer, unassigned) [Example 792]",70
4,"CN1C(=O)[C@@H](NC(=O)c2ncn(Cc3ccccc3)n2)CCn2nc(CCN3CCOCC3)cc21 [Example 752, 1-benzyl-N-[(6S)-4-methyl-2-(2-morpholinoethyl)-5-oxo-7,8-dihydro-6H-pyrazolo[1,5-a][1,3]diazepin-6-yl]-1,2,4-triazole-3-carboxamide]",116
5,"CN1C(=O)[C@@H](NC(=O)c2cc3c(-c4ccccc4)cccc3cn2)CCn2nccc21 (racemic) [Example 703, 5-phenyl-N-[rac-(6S)-4-methyl-5-oxo-7,8-dihydro-6H-pyrazolo[1,5-a][1,3]diazepin-6-yl]isoquinoline-3-carboxamide]",24
6,"CN1C(=O)C(NC(=O)c2ncn(Cc3ccccc3)n2)CCn2nc(-c3ccn(C)n3)cc21 (racemic) [Example 777, 1-benzyl-N-(4-methyl-2-(1-methyl-1H-pyrazol-3-yl)-5-oxo-5,6,7,8-tetrahydro-4H-pyrazolo[1,5-a][1,3]diazepin-6-yl)-1H-1,2,4-triazole-3-carboxamide]",70

# Same assay, conditions: human RIP1 kinase domain (2-375), 50 uM ATP, 2 hours incubation, Transcreener ADP assay; read-out: RIP1 Ki
row,SMILES,Ki [nM]
1,"CCC1(C)OCc2nnc(C(=O)N[C@H]3COc4ccccc4N(C)C3=O)cc21 (stereo partly drawn) [Example 201, 5-ethyl-5-methyl-N—((S)-5-methyl-4-oxo-2,3,4,5-tetrahydrobenzo[b][1,4]oxazepin-3-yl)-5,7-dihydrofuro[3,4-c]pyridazine-3-carboxamide]",411
2,"CC(c1ccccc1)c1nnc(C(=O)NC2CCCn3nccc3N(C)C2=O)[nH]1 (centres unmarked) [Example 95, N-(4-methyl-5-oxo-4,5,6,7,8,9-hexahydropyrazolo[1,5-a][1,3]diazocin-6-yl)-5-(1-phenylethyl)-4H-1,2,4-triazole-3-carboxamide]",4300

# Same assay, conditions: human RIP1 kinase domain (2-375), Transcreener ADP assay, 50 uM ATP, 2 hours incubation; read-out: RIP1 Ki
row,SMILES,Ki [nM]
1,"CN1C(=O)[C@H](NC(=O)c2ncn(Cc3ccc(F)cc3F)n2)CCn2nc([C@H]3CC3(F)F)cc21 [Example 316, 1-(2,4-difluorobenzyl)-N—((R)-2-((R)-2,2-difluorocyclopropyl)-4-methyl-5-oxo-5,6,7,8-tetrahydro-4H-pyrazolo[1,5-a][1,3]diazepin-6-yl)-1H-1,2,4-triazole-3-carboxamide]",31.8
2,"CC(c1ccc(F)cc1)n1cnc(C(=O)N[C@H]2CCn3nc(C4CC4)cc3N(C)C2=O)n1 (stereo in doubt) [Example 290, (S)—N-(2-cyclopropyl-4-methyl-5-oxo-5,6,7,8-tetrahydro-4H-pyrazolo[1,5-a][1,3]diazepin-6-yl)-1-(1-(4-fluorophenyl)ethyl)-1H-1,2,4-triazole-3-carboxamide]",117
3,"CN1C(=O)[C@@H](NC(=O)c2ncn(Cc3cc(F)ccc3F)n2)CCn2nc(C3CC3)cc21 [Example 304, (S)—N-(2-cyclopropyl-4-methyl-5-oxo-5,6,7,8-tetrahydro-4H-pyrazolo[1,5-a][1,3]diazepin-6-yl)-1-(2,5-difluorobenzyl)-1H-1,2,4-triazole-3-carboxamide]",10.3
4,"CN1C(=O)C(NC(=O)c2ncn(CC3CC3)n2)CCn2nc(C3CC3)cc21 (centres unmarked) [Example 260, N-(2-cyclopropyl-4-methyl-5-oxo-5,6,7,8-tetrahydro-4H-pyrazolo[1,5-a][1,3]diazepin-6-yl)-1-(cyclopropylmethyl)-1H-1,2,4-triazole-3-carboxamide]",1900
5,"CC[C@]1(C)OCc2cnc(C(=O)N[C@H]3COc4cc(F)cc(F)c4NC3=O)cc21 [Example 243, (S)—N—((S)-6,8-difluoro-4-oxo-2,3,4,5-tetrahydrobenzo[b][1,4]oxazepin-3-yl)-1-ethyl-1-m ethyl-1,3-dihydrofuro[3,4-c]pyridine-6-carboxamide]",270
6,"Cc1ncn2c1N(C)C(=O)C(NC(=O)c1cn(Cc3ccccc3)nn1)CC2 (centres unmarked) [Example 227, 1-benzyl-N-(1,9-dimethyl-2-oxo-2,3,4,5-tetrahydro-1H-imidazo[1,5-a][1,3]diazepin-3-yl)-1H-1,2,3-triazole-4-carboxamide]",419

# Same assay, conditions: read-out: RIP1 Ki
row,SMILES,Ki [nM]
1,"CC1CCc2n[nH]c(C(=O)N[C@H]3COc4ccccc4N(C)C3=O)c2C1 (stereo partly drawn) [Example 45, 5-methyl-N-((S)-5-methyl-4-oxo-2,3,4,5-tetrahydrobenzo[b][1,4]oxazepin-3-yl)-4,5,6,7-tetrahydro-2H-indazole-3-carboxamide]",62.6

# Same assay, conditions: tight-binding apparent inhibition constant; human RIP1 kinase domain (2-375) 50 nM, 50 uM ATP, 2 hours; read-out: Ki
row,SMILES,Ki [nM]
1,"Cc1cc(F)c2c(c1)OC[C@H](NC(=O)c1ncc3cnn(C(C)C)c3n1)C(=O)N2 [Example 606, 1-isopropyl-N-[(3S)-6-fluoro-8-methyl-4-oxo-3,5-dihydro-2H-1,5-benzoxazepin-3-yl]pyrazolo[3,4-d]pyrimidine-6-carboxamide]",4.8
2,"CN1C(=O)[C@@H](NC(=O)c2nc3n(n2)[C@@H](c2ccccc2F)CC3)COc2ccccc21 [Example 468, (R)-5-(2-fluorophenyl)-N—((S)-5-methyl-4-oxo-2,3,4,5-tetrahydrobenzo[b][1,4]oxazepin-3-yl)-6,7-dihydro-5H-pyrrolo[1,2-b][1,2,4]triazole-2-carboxamide]",4
3,"Cc1cc(F)c2c(c1)OC[C@H](NC(=O)c1nc3n(n1)[C@H](C(C)C)CCC3)C(=O)N2 (single isomer, unassigned) [Example 440]",3.46
4,"CC(C)Oc1cc2n(n1)CCC(NC(=O)c1ncn(Cc3ccccc3)n1)C(=O)N2C (centres unmarked) [Example 461, 1-Benzyl-N-(2-isopropoxy-4-methyl-5-oxo-5,6,7,8-tetrahydro-4H-pyrazolo[1,5-a][1,3]diazepin-6-yl)-1H-1,2,4-triazole-3-carboxamide]",50
5,"O=C(N[C@H]1CCc2cc(F)cc(F)c2NC1=O)c1nc2n(n1)CCO[C@H]2c1ccccc1 [Example 638, (8S)-8-phenyl-N-[(3S)-7,9-difluoro-2-oxo-1,3,4,5-tetrahydro-1-benzazepin-3-yl]-6,8-dihydro-5H-[1,2,4]triazolo[5,1-c][1,4]oxazine-2-carboxamide]",38
6,"Cc1cccnc1Cn1cnc(C(=O)N[C@H]2CCn3nccc3N(C)C2=O)n1 [Example 647, 1-[(3-methyl-2-pyridyl)methyl]-N-(6S)-4-methyl-5-oxo-7,8-dihydro-6H-pyrazolo[1,5-a][1,3]diazepin-6-yl-1,2,4-triazole-3-carboxamide]",160
7,"CC[C@H]1C[C@@H](Cn2cnc(C(=O)N[C@H]3CCn4nccc4N(C)C3=O)n2)C1 [Example 502, N—((S)-4-methyl-5-oxo-5,6,7,8-tetrahydro-4H-pyrazolo[1,5-a][1,3]diazepin-6-yl)-1-(((1R,3R)-3-ethylcyclobutyl)methyl)-1H-1,2,4-triazole-3-carboxamide]",27
8,"CN1C(=O)[C@@H](NC(=O)c2nc3cccc(-c4cnn(C)c4)n3n2)CCn2nccc21 [Example 393, (S)-5-(1-methyl-1H-pyrazol-4-yl)-N-(4-methyl-5-oxo-5,6,7,8-tetrahydro-4H-pyrazol-[1,5-a][1,3]diazepin-6-yl)-[1,2,4]triazolo[1,5-a]pyridine-2-carboxamide]",463
9,"CN1C(=O)C(NC(=O)c2ncn(Cc3ccccc3)n2)CCn2nc(C(C)(C)F)cc21 (single isomer, unassigned) [Example 370, 1-benzyl-N-[2-(1-fluoro-1-methyl-ethyl)-4-methyl-5-oxo-7,8-dihydro-6H-pyrazolo[1,5-a][1,3]diazepin-6-yl]-1,2,4-triazole-3-carboxamide]",555

# Reference: patent US10988459B2 (priority 2015, dated 2021)
